US12043599B2, “Herbicidal compounds” (SYNGENTA PARTICIPATIONS AG, priority 2018, dated 2024)

Key:
Type in all cases: in vivo
Settings in all cases: 250 g/h, evaluated after 13 days
[1] = system: Alopecurus myosuroides (ALOMY); assay: Post-emergence herbicidal glasshouse test, percentage damage
In short: (§1)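 Seeds are sown in pots, grown at 24/16 °C day/night with 14 h light and 65% humidity, then sprayed at day 1 (pre-emergence) or day 8 (post-emergence). The rate is 250 g/h in acetone/water 50:50 with 0.5% Tween 20. Damage is assessed 13 days later on a 1–5 scale.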

Avena fatua (AVEFA) [2] = assay: as above
In short: as §1

Lolium perenne (LOLPE) [3] = assay: as above
In short: as §1

Setaria faberi (SETFA) [4] = assay: as above
In short: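 Percentage damage was scored 13 days after treatment on a five-point scale (1=0-19% to 5=80-100%). Treatments were post-emergence sprays on 8-day-old wheat, barley and SETFA plants in a glasshouse (24/16 °C day/night, 14 h light, 65% humidity), using acetone/water 50:50 with 0.5% Tween 20 at the stated rates. Wheat additionally received cloquintocet-mexyl safener at 50 g/ha.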

Setaria faberi (SETFA) [5] = assay: Pre-emergence herbicidal glasshouse test, percentage damage
In short: as §1

[6] = system: Echinochloa crus-galli (ECHCG); assay: as above
In short: as §1

[7] = system: Alopecurus myosuroides (ALOMY); assay: as above
In short: as §1

Avena fatua (AVEFA) [8] = assay: as above
In short: as §1

Lolium perenne (LOLPE) [9] = assay: as above
In short: as §1

[10] = system: Echinochloa crus-galli (ECHCG); assay: Post-emergence herbicidal glasshouse test, percentage damage
In short: as §1

| SMILES | ALOMY POST percentage damage (five point scale) [1] | AVEFA POST percentage damage (five point scale) (Avena fatua (AVEFA) [2]) | LOLPE POST percentage damage (five point scale) (Lolium perenne (LOLPE) [3]) | SETFA POST percentage damage (five point scale) (Setaria faberi (SETFA) [4]) | SETFA PRE percentage damage (five point scale) (Setaria faberi (SETFA) [5]) | ECHCG PRE percentage damage (five point scale) [6] | ALOMY PRE percentage damage (five point scale) [7] | AVEFA PRE percentage damage (five point scale) (Avena fatua (AVEFA) [8]) | LOLPE PRE percentage damage (five point scale) (Lolium perenne (LOLPE) [9]) | ECHCG POST percentage damage (five point scale) [10] |
| --- | --- | --- | --- | --- | --- | --- | --- | --- | --- | --- |
| CC#Cc1cc(C)c(C2C(=O)CC3(CCN(S(=O)(=O)CC4CC4)CC3)CC2=O)c(C)c1 [Compound A15] | 5 (5=80-100%) | 5 (5=80-100%) | 5 (5=80-100%) | 5 (5=80-100%) | 5 (5=80-100%) | 5 (5=80-100%) | 5 (5=80-100%) | 5 (5=80-100%) | 5 (5=80-100%) | – |
| CC#Cc1cc(C)c(C2C(=O)CC3(CCN(S(=O)(=O)c4ccccc4F)CC3)CC2=O)c(C)c1 [Compound A17] | 5 (5=80-100%) | 5 (5=80-100%) | 5 (5=80-100%) | 5 (5=80-100%) | 5 (5=80-100%) | 5 (5=80-100%) | 5 (5=80-100%) | 5 (5=80-100%) | 5 (5=80-100%) | – |
| CC#Cc1cc(C)c(C2C(=O)CC3(CCN(C(=O)c4ccc(C#N)cn4)CC3)CC2=O)c(C)c1 [Compound A20] | 5 (5=80-100%) | 5 (5=80-100%) | 5 (5=80-100%) | 5 (5=80-100%) | 5 (5=80-100%) | 5 (5=80-100%) | 5 (5=80-100%) | 5 (5=80-100%) | 5 (5=80-100%) | – |
| CC#Cc1cc(C)c(C2C(=O)CC3(CCN(C(=O)c4cccnn4)CC3)CC2=O)c(C)c1 [Compound A21] | 5 (5=80-100%) | 5 (5=80-100%) | 5 (5=80-100%) | 5 (5=80-100%) | 3 (3=40-59%) | 2 (2=20-39%) | 5 (5=80-100%) | 5 (5=80-100%) | 5 (5=80-100%) | – |
| CC#Cc1cc(C)c(C2C(=O)CC3(CCN(S(=O)(=O)c4cn(C)nc4C(F)(F)F)CC3)CC2=O)c(C)c1 [Compound A40] | 5 (5=80-100%) | 5 (5=80-100%) | 5 (5=80-100%) | 5 (5=80-100%) | 5 (5=80-100%) | 5 (5=80-100%) | 5 (5=80-100%) | 5 (5=80-100%) | 5 (5=80-100%) | – |
| CC#Cc1cc(C)c(C2C(=O)CC3(CCN(C(=O)NC(=O)c4ccccn4)CC3)CC2=O)c(OC)c1 [Compound A79] | 5 (5=80-100%) | 5 (5=80-100%) | 5 (5=80-100%) | 5 (5=80-100%) | 4 (4=60-79%) | 4 (4=60-79%) | 4 (4=60-79%) | 5 (5=80-100%) | 5 (5=80-100%) | – |
| CC#Cc1cc(C)c(C2C(=O)CC3(CCN(c4cncnc4)CC3)CC2=O)c(C)c1 [Compound A87] | 5 (5=80-100%) | 5 (5=80-100%) | 5 (5=80-100%) | 5 (5=80-100%) | 5 (5=80-100%) | 5 (5=80-100%) | 4 (4=60-79%) | 3 (3=40-59%) | 5 (5=80-100%) | – |
| CC#Cc1cc(C)c(C2=C(O)CC3(CCN(C=O)CC3)CC2=O)c(C)c1 [Compound A96] | 5 (5=80-100%) | 5 (5=80-100%) | 5 (5=80-100%) | 5 (5=80-100%) | 5 (5=80-100%) | 5 (5=80-100%) | 5 (5=80-100%) | 5 (5=80-100%) | 5 (5=80-100%) | – |
| CC#Cc1cc(C)c(C2C(=O)CC3(CCN(S(=O)(=O)Cc4ccon4)CC3)CC2=O)c(C)c1 [Compound A97] | 5 (5=80-100%) | 5 (5=80-100%) | 5 (5=80-100%) | 5 (5=80-100%) | 5 (5=80-100%) | 5 (5=80-100%) | 4 (4=60-79%) | 5 (5=80-100%) | 5 (5=80-100%) | – |
| CC#Cc1cc(C)c(C2C(=O)CC3(CCN(S(=O)(=O)c4cccnc4)CC3)CC2=O)c(C)c1 [Compound A98] | 5 (5=80-100%) | 5 (5=80-100%) | 5 (5=80-100%) | 5 (5=80-100%) | 3 (3=40-59%) | 4 (4=60-79%) | 4 (4=60-79%) | 5 (5=80-100%) | 5 (5=80-100%) | – |
| CC#Cc1cc(C)c(C2=C(OC(=O)OC)CC3(CCN(C(=O)c4ncccn4)CC3)CC2=O)c(C)c1 [Compound P22] | 5 (5=80-100%) | 5 (5=80-100%) | 5 (5=80-100%) | 5 (5=80-100%) | 5 (5=80-100%) | 5 (5=80-100%) | 5 (5=80-100%) | 5 (5=80-100%) | 5 (5=80-100%) | – |
| CC#Cc1cc(C)c(C2=C(OC(=O)c3ncccn3)CC3(CCN(C(=O)c4ncccn4)CC3)CC2=O)c(C)c1 [Compound P23] | 5 (5=80-100%) | 5 (5=80-100%) | 5 (5=80-100%) | 5 (5=80-100%) | 5 (5=80-100%) | 5 (5=80-100%) | 5 (5=80-100%) | 4 (4=60-79%) | 5 (5=80-100%) | – |
| CC#Cc1cc(C)c(C2=C(OC(=O)OC)CC3(CCN(C(=O)C(C)(C)OC)CC3)CC2=O)c(C)c1 [Compound P26] | 5 (5=80-100%) | 5 (5=80-100%) | 5 (5=80-100%) | 5 (5=80-100%) | 5 (5=80-100%) | 5 (5=80-100%) | 5 (5=80-100%) | 5 (5=80-100%) | 5 (5=80-100%) | – |
| CC#Cc1cc(C)c(C2=C(OC(=O)OC)CC3(CCN(C(=O)CC#N)CC3)CC2=O)c(C)c1 [Compound P43] | – | 5 (5=80-100%) | 5 (5=80-100%) | 5 (5=80-100%) | 5 (5=80-100%) | 5 (5=80-100%) | 5 (5=80-100%) | 5 (5=80-100%) | 5 (5=80-100%) | 4 (4=60-79%) |
| CC#Cc1cc(C)c(C2=C(OC(=O)OC)CC3(CCN(C(=O)C4COC4)CC3)CC2=O)c(C)c1 [Compound P44] | – | 5 (5=80-100%) | 5 (5=80-100%) | 5 (5=80-100%) | 5 (5=80-100%) | 5 (5=80-100%) | 5 (5=80-100%) | 5 (5=80-100%) | 5 (5=80-100%) | 5 (5=80-100%) |
